Data as given in patent US7183112B2, “Uses for anti-malarial therapeutic agents” (APT Pharmaceuticals, LLC, priority 1999, dated 2007).
Several values for one entry are separate records, joined by “and”; a condition that tells them apart may be missing. Identical values can stand only once. Entries after “also recorded” stand apart in the source; their conditions may differ.

System: Ascaris-sensitized sheep
Test: Antigen-induced changes in specific lung resistance (early and late responses), Examples 1-2
Type: in vivo
Details: for Specific resistance, +1 HR % / Specific resistance, +1 HR Srl: 1 h post antigen; for Specific resistance, +2 HRS % / Specific resistance, +2 HRS Srl: 2 h post antigen; for Specific resistance, P-ASC % / Specific resistance, P-ASC Srl: immediately post Ascaris antigen; for Specific resistance, P-pl/dg % (immediate) / Specific resistance, P-pl/dg Srl (immediate): immediately post drug; for Specific resistance, P-pl/dg % (just before Ag) / Specific resistance, P-pl/dg Srl (just before Ag): post drug, just before antigen; for Specific resistance, +3 HRS % / Specific resistance, +3 HRS Srl: 3 h post antigen; for Specific resistance, +4 HRS % / Specific resistance, +4 HRS Srl: 4 h post antigen; for Specific resistance, +5 HRS % / Specific resistance, +5 HRS Srl: 5 h post antigen; for Specific resistance, +7 HRS % / Specific resistance, +7 HRS Srl: 7 h post antigen; for Specific resistance, +7.5 HRS % / Specific resistance, +7.5 HRS Srl: 7.5 h post antigen; for Specific resistance, +8 HRS % / Specific resistance, +8 HRS Srl: 8 h post antigen
Description: All procedures were approved by the Mount Sinai Medical Center Animal Research Committee, which is responsible for assuring the humane care and use of experimental animals.
Measurement of Airway Mechanics: The unsedated sheep were restrained in a cart in the prone position with their heads immobilized. After topical anesthesia of the nasal passages with 2% lidocaine solution, a balloon catheter was advanced through one nostril into the lower esophagus. The animals were […] with a cuffed endotracheal tube through the other nostril using a flexible fiberoptic bronchoscope as a guide. […] Pleural pressure was estimated with the esophageal balloon catheter (filled with one ml of air) which was positioned 5–10 cm from the gastroesophageal junction. […] Once the balloon was placed, it was secured so that it remained in position for the duration of the experiment. Lateral pressure in the trachea was-measured with a sidehole catheter (inner dimension, 2.5 mm) advanced through and positioned distal to the tip of the endotracheal tube. Transpulmonary pressure, the difference between tracheal and pleural pressure, was measured with a differential pressure transducer catheter system. For the measurement of pulmonary resistance (RL), the proximal end of the endotracheal tube was connected to a pneumotachograph (Fleisch No. 1; Dyna Sciences, Inc., Blue Bell, Pa.). […] The mean of at least five breaths, free of swallowing artifact, was used to obtain RL in cm H2O/L/s. Immediately after the measurement of RL, thoracic gas volume (Vtg) was measured in a constant-volume body plethysmograph to obtain specific lung resistance (SRL=RL×Vtg) in L×cm H2O/L/s.
Aerosol Delivery Systems: Aerosols of Ascaris suum extract (diluted 20:1 with phosphate buffered saline; 82,000 PNU/ml) were generated using a disposable medical nebulizer (Raindrop^R, Puritan Bennett), which produces an aerosol with a mass median aerodynamic diameter of 3.2 μm (geometric standard deviation, 1.9) as determined by a 7 stage Andersen cascade impactor. The output from the nebulizer was directed into a plastic T-piece, one end of which was connected to the inspiratory port of a Harvard respirator. […] The aerosol was delivered at a tidal volume of 500 ml and a rate of 20 breaths per minute for 20 minutes. Each sheep was challenged with an equivalent dose of antigen (400 breaths) in the control and drug trials. Carbachol aerosols were also generated with this same nebulizer system.
At 3 to 4 days before treatment was begun, baseline airway responsiveness, to aerosol carbachol (i.e., PC400) was determined and a baseline bronchial biopsy performed. […] The animals were treated two times a day for 3 days and then, on the fourth day, at 0.5 hours before antigen challenge and again at 4 hours after challenge. […] SRL was remeasured 0.5 h after treatment (just before challenge) and the animals were then challenged with antigen. SRL was then remeasured immediately after.
On the fourth day, they received an additional treatment one-half hour prior to antigen challenge.

[1] = Example 1, aerosol 30 mg/animal (0.78 mg/kg) twice a day, Mean
[2] = Example 1, aerosol 30 mg/animal (0.78 mg/kg) twice a day, individual sheep
[3] = Example 2, aerosol 40 mg b.i.d. (2 mg/kg/day)
[4] = Example 2, aerosol 40 mg b.i.d. (2 mg/kg/day), Mean of 2 sheep
[5] = Example 2, aerosol 40 mg b.i.d. (2 mg/kg/day), individual sheep
[6] = Example 2, aerosol 40 mg b.i.d. (2 mg/kg/day), 6 h post antigen, Mean of 2 sheep
[7] = Example 2, aerosol 40 mg b.i.d. (2 mg/kg/day), 6 h post antigen, individual sheep
[8] = Example 2, aerosol 40 mg b.i.d. (2 mg/kg/day), +6 HRS, individual sheep
[9] = inhaled (nebulized), summary of animal studies

## CCN(CCO)CCCC(C)Nc1ccnc2cc(Cl)ccc12 (centres unmarked) [HCQ, hydroxychloroquine]
[1]
  Specific resistance, +1 HR %: 38%
  Specific resistance, +1 HR Srl: 1.39 L×cm H2O/L/s
  Specific resistance, +2 HRS %: 42%
  Specific resistance, +2 HRS Srl: 1.44 L×cm H2O/L/s
  Specific resistance, P-ASC %: 95%
  Specific resistance, P-ASC Srl: 1.97 L×cm H2O/L/s
  Specific resistance, P-pl/dg % (immediate): 10%
  Specific resistance, P-pl/dg Srl (immediate): 1.11 L×cm H2O/L/s
  Specific resistance, P-pl/dg % (just before Ag): 2%
  Specific resistance, P-pl/dg Srl (just before Ag): 1.03 L×cm H2O/L/s
[2]
  Specific resistance, +1 HR %: 32% and 43% and 30%
  Specific resistance, +1 HR Srl: 1.35 L×cm H2O/L/s and 1.49 L×cm H2O/L/s
  Specific resistance, +2 HRS %: 11% and 74% and 4%
  Specific resistance, +2 HRS Srl: 1.13 L×cm H2O/L/s and 1.74 L×cm H2O/L/s and 1.2 L×cm H2O/L/s
  Specific resistance, P-ASC %: 140% and 49% and 189%
  Specific resistance, P-ASC Srl: 2.45 L×cm H2O/L/s and 1.49 L×cm H2O/L/s and 3.32 L×cm H2O/L/s
  Specific resistance, P-pl/dg % (immediate): 18% and 2% and 19%
  Specific resistance, P-pl/dg Srl (immediate): 1.20 L×cm H2O/L/s and 1.02 L×cm H2O/L/s and 1.37 L×cm H2O/L/s
  Specific resistance, P-pl/dg % (just before Ag): 9% and −5% and −2%
  Specific resistance, P-pl/dg Srl (just before Ag): 1.11 L×cm H2O/L/s and 0.95 L×cm H2O/L/s and 1.13 L×cm H2O/L/s
[3]
  effect on acute reactions: not inhibited
  effect on late phase asthmatic reactions: virtually completely blocked
[4]
  Specific resistance, +1 HR %: 132%
  Specific resistance, +1 HR Srl: 2.43 L×cm H2O/L/s
  Specific resistance, +2 HRS %: 69%
  Specific resistance, +2 HRS Srl: 1.74 L×cm H2O/L/s
  Specific resistance, +3 HRS %: 50%
  Specific resistance, +3 HRS Srl: 1.58 L×cm H2O/L/s
  Specific resistance, +4 HRS %: 19%
  Specific resistance, +4 HRS Srl: 1.26 L×cm H2O/L/s
  Specific resistance, +5 HRS %: 17%
  Specific resistance, +5 HRS Srl: 1.23 L×cm H2O/L/s
  Specific resistance, +7 HRS %: 16%
  Specific resistance, +7 HRS Srl: 1.23 L×cm H2O/L/s
  Specific resistance, +7.5 HRS %: 35%
  Specific resistance, +7.5 HRS Srl: 1.42 L×cm H2O/L/s
  Specific resistance, +8 HRS %: 20%
  Specific resistance, +8 HRS Srl: 1.27 L×cm H2O/L/s
  Specific resistance, P-ASC %: 238%
  Specific resistance, P-ASC Srl: 3.58 L×cm H2O/L/s
  Specific resistance, P-pl/dg % (immediate): 3%
  Specific resistance, P-pl/dg Srl (immediate): 1.08 L×cm H2O/L/s
  Specific resistance, P-pl/dg % (just before Ag): 1%
  Specific resistance, P-pl/dg Srl (just before Ag): 1.07 L×cm H2O/L/s
[5]
  Specific resistance, +1 HR %: 171% and 93%
  Specific resistance, +1 HR Srl: 2.76 L×cm H2O/L/s and 2.10 L×cm H2O/L/s
  Specific resistance, +2 HRS %: 102% and 36%
  Specific resistance, +2 HRS Srl: 2.06 L×cm H2O/L/s and 1.48 L×cm H2O/L/s
  Specific resistance, +3 HRS %: 54% and 46%
  Specific resistance, +3 HRS Srl: 1.57 L×cm H2O/L/s and 1.59 L×cm H2O/L/s
  Specific resistance, +4 HRS %: 10% and 28%
  Specific resistance, +4 HRS Srl: 1.12 L×cm H2O/L/s and 1.39 L×cm H2O/L/s
  Specific resistance, +5 HRS %: 36% and −2%
  Specific resistance, +5 HRS Srl: 1.39 L×cm H2O/L/s and 1.07 L×cm H2O/L/s
  Specific resistance, +7 HRS %: 20% and 13%
  Specific resistance, +7 HRS Srl: 1.22 L×cm H2O/L/s and 1.23 L×cm H2O/L/s
  Specific resistance, +7.5 HRS %: 50% and 19%
  Specific resistance, +7.5 HRS Srl: 1.53 L×cm H2O/L/s and 1.30 L×cm H2O/L/s
  Specific resistance, +8 HRS %: 22% and 18%
  Specific resistance, +8 HRS Srl: 1.24 L×cm H2O/L/s and 1.29 L×cm H2O/L/s
  Specific resistance, P-ASC %: 196% and 280%
  Specific resistance, P-ASC Srl: 3.02 L×cm H2O/L/s and 4.14 L×cm H2O/L/s
  Specific resistance, P-pl/dg % (immediate): 13% and −7%
  Specific resistance, P-pl/dg Srl (immediate): 1.15 L×cm H2O/L/s and 1.01 L×cm H2O/L/s
  Specific resistance, P-pl/dg % (just before Ag): −6% and 7%%
  Specific resistance, P-pl/dg Srl (just before Ag): 0.96 L×cm H2O/L/s and 1.17 L×cm H2O/L/s
[6]
  Specific resistance, +6 HRS %: 18%
  Specific resistance, +6 HRS Srl: 1.24 L×cm H2O/L/s
[7]
  Specific resistance, +6 HRS %: 20% and 16%
  Specific resistance, +6 HRS Srl: 1.22 L×cm H2O/L/s and 1.26 L×cm H2O/L/s
Example 2, aerosol 40 mg b.i.d. (2 mg/kg/day), +6 HRS, Mean of 2 sheep
  Specific resistance, +6 HRS Srl: 1.21 L×cm H2O/L/s
[8]
  Specific resistance, +6 HRS %: 8% and 21%
  Specific resistance, +6 HRS Srl: 1.10 L×cm H2O/L/s and 1.32 L×cm H2O/L/s
Example 2, aerosol 40 mg b.i.d. (2 mg/kg/day), second +6 HRS column (text: at 6.5 hours), Mean of 2 sheep
  Specific resistance, +6 HRS %: 14%
aerosol, sheep, specific resistance pre- and immediately following application
  irritant effects / tolerability of aerosolized HCQ (airway resistance after inhalation): well tolerated; also recorded: does not cause any major irritant effects
[9]
  effect on immediate allergic-mediated bronchostrictive responses: partially blocks
  effect on late-phase responses (four to 12 hours post-antigen challenge): virtually eliminates
